The values that follow come from article PMC12288536, “Development of an atrazine immunoassay based on highly catalytically active Au@PtNPs and specific nanobody” (Research Square, 2025).

Molecules are shown by their SMILES. Some results are limits rather than exact numbers.

The subject of one assay is Nanobody-26. Put plainly: ic-ELISA based on atrazine nanobody (indirect competitive). The assay is classed as binding, alpaca. To be noted: for IC50 (Nanobody): coating antigen 2e-BSA; for CR% (Nanobody): cross-reaction = IC50(atrazine)/IC50(analog). The protocol: In this study, ic-ELISA was first used to assess the effect of two coating antigens on the sensitivity of the nanobody. The optimal concentrations of nanobody and coating antigen were confirmed by the checkerboard method, and the sensitivity of nanobody was evaluated under optimal conditions. Detailed procedures for sensitivity assessment of nanobody were presented in the Supplementary Material.
Cross-reactivity evaluation was performed using the developed ic-ELISA for atrazine, simazine, terbuthylazine, terbutryn, cyanuric acid, ametryn, melamine, atrazine-2-hydroxy and 2-chloro-4,6-diamino-1,3,5-triazine. The above compounds were prepared into standard solutions at certain concentrations, and the standard inhibition curves were established. The cross-reactions were calculated according to the respective IC50 obtained from the standard inhibition curves and the following formula: Cross-reaction(CR%)=IC50(atrazine)∕IC50(the other structurally similar compound)
A general note: An ELISA detects its analyte on a solid surface through an enzyme-linked reagent.

A further assay deals with Au@PtNPs-nanobody probe. Put plainly: dc-ELISA based on Au@PtNPs-nanobody probe (direct competitive), incl. matrix effect evaluation. To be noted: for CR% (Au@PtNPs-nanobody): cross-reaction = IC50(atrazine)/IC50(analog); for IC50 (Au@PtNPs-nanobody): optimal conditions, 1×PBS containing 5% methanol. In kind it is binding, alpaca. Here is the method: The sodium chloride interference method was used to determine the optimal conditions for coupling. Adjust the Au@PtNPs-145 nm (10 mL) to the optimal pH with 0.1 M K2CO3, then the optimal amount of nanobody and BSA (0.1 g) were added dropwise to the solution and stirred for 30 minutes. PEG20000 (0.05 g) was then added to the above solution and incubated at 4°C overnight after stirring for 30 minutes. The probe was purified by fractionation and centrifugation at 4°C, and the precipitate was collected and re-dissolved in 1 mL of probe diluent (pH 7.2, PBS buffer containing 1% sucrose, 0.1% BSA, 0.1% Tween 20 and 0.1% alginate) at 4°C for storage and further use.
Au@PtNPs-nanobody was used to develop a new dc-ELISA, and the optimal concentrations of probe and coating antigen were confirmed by the checkerboard method, and the sensitivity of dc-ELISA was evaluated under optimal conditions. The cross-reactivity of the dc-ELISA to atrazine analogs was also evaluated to compare with the specificity of ic-ELISA.
Tap water, river water and soil without atrazine were selected as samples for the evaluation of matrix effects. The effect of tap water, river water and soil on the sensitivity of the detection method was evaluated using two newly developed immunoassay methods based on Au@PtNPs-nanobody. The accuracy of the developed method for real samples was also verified using high performance liquid chromatography (HPLC). The solid sample (10 g) was simultaneously extracted with 20 ml of methanol in a vortex mixer for 15 minutes. The mixture was then centrifuged at 4000 rpm for 5 minutes and the supernatant was collected, diluted appropriately and analyzed by HPLC. After confirming that the samples were free of atrazine, atrazine solution was added to the samples so that the final concentrations of atrazine in the samples were 1 μg/mL, 5 μg/mL, and 10 μg/mL, and then the samples were subjected to dc-ELISA. HPLC was also used for validation.
Considering the real samples detection, complex matrix can affect the recognition and binding between antibodies and coating antigens/analytes, which seriously interferes with the performance of the immunoassay and affects the accuracy of the analytical results. Therefore, matrix effects should be minimized or eliminated during sample analysis to ensure the accuracy of the immunoassay method. The simplest method for matrix elimination or reduction is to dilute the sample with the assay buffer. In this study, tap water, river water and soil were selected for matrix effect evaluation. The tap water samples confirmed to be none of atrazine were diluted directly with 1×PBS to a total dilution ratio of 2-, 4-, 8-, and 16-fold, and then different concentrations of atrazine solution were prepared with these obtained buffer solutions, respectively. […] But, tap water samples diluted […] had higher IC50 when compared with assay buffer or other diluted samples. […] Therefore, the 4-fold dilution was selected for the tap water samples. Similarly, river water samples diluted 4-fold and 8-fold had higher IC50 values compared to assay buffer or other diluted samples. […] Therefore, 16-fold dilution was selected for the river water sample (Fig. 4C). Soil samples without atrazine were used as blank samples and extracted with methanol, then diluted with 1×PBS resulting in a total dilution ratio of 10, 20, 40, 60 and 80-fold. Atrazine standard solutions were prepared using the above obtained buffer solutions. […] When the soil matrix was diluted 60 and 80-fold, there was no significant difference between their maximum absorbance and IC50 . Therefore, the 60-fold dilution was selected for the next spike and recovery study. Spiked-recovery validation using both HPLC and dc-ELISA to evaluate the precision of the dc-ELISA. […] Also, the results of the dc-ELISA method were approximately consistent with that of HPLC.

Turning to `Nc1nc(N)nc(Cl)n1` [2-chloro-4,6-diamino-1,3,5-triazine], in the assay on Nanobody-26, the “IC50 (Nanobody)” value was 1.1 µg/mL and the “CR% (Nanobody)” value is recorded as 5.40%. Moreover, in the assay on Au@PtNPs-nanobody probe, the “CR% (Au@PtNPs-nanobody)” value was 3.42% and the “IC50 (Au@PtNPs-nanobody)” value came to 0.93 µg/mL.
On to `CCNc1nc(NC(C)C)nc(SC)n1` [Ametryn], for which, in the assay with Nanobody-26, the “IC50 (Nanobody)” value is 0.23 µg/mL and the “CR% (Nanobody)” value turned out to be 27.4%. Moreover, the “CR% (Nanobody)” value with Nanobody-26 (listed as ametryn) is “about 30%”. In the assay with Au@PtNPs-nanobody probe, the “CR% (Au@PtNPs-nanobody)” value is reported as 3.55% and the “IC50 (Au@PtNPs-nanobody)” value was determined as 0.90 µg/mL.
`CCNc1nc(NC(C)C)[nH]c(=O)n1` [Atrazine-2-hydroxy]: in the assay on Nanobody-26, the “IC50 (Nanobody)” value is above 100 µg/mL and the “CR% (Nanobody)” value is given as below 0.1%. Besides, in the assay on Au@PtNPs-nanobody probe, the “CR% (Au@PtNPs-nanobody)” value was below 0.1% and the “IC50 (Au@PtNPs-nanobody)” value was above 100 µg/mL.
For `CCNc1nc(Cl)nc(NC(C)C)n1` [Atrazine], in the assay on Nanobody-26, the “IC50 (Nanobody)” value amounted to 0.062 µg/mL and the “CR% (Nanobody)” value came out at 100%. In the assay with Au@PtNPs-nanobody probe, the “CR% (Au@PtNPs-nanobody)” value amounted to 100% and the “IC50 (Au@PtNPs-nanobody)” value stood at 0.032 µg/mL.
Turning to `Oc1nc(O)nc(O)n1` [Cyanuric acid], in the assay on Nanobody-26, the “IC50 (Nanobody)” value was above 100 µg/mL and the “CR% (Nanobody)” value is below 0.1%. In addition, in the assay with Au@PtNPs-nanobody probe, the “CR% (Au@PtNPs-nanobody)” value is below 0.1% and the “IC50 (Au@PtNPs-nanobody)” value was above 100 µg/mL.
For the molecule `Nc1nc(N)nc(N)n1` [Melamine], in the assay on Nanobody-26, the “IC50 (Nanobody)” value was above 100 µg/mL and the “CR% (Nanobody)” value is below 0.1%. Besides, in the assay with Au@PtNPs-nanobody probe, the “CR% (Au@PtNPs-nanobody)” value was below 0.1% and the “IC50 (Au@PtNPs-nanobody)” value was above 100 µg/mL.
In the case of `CCNc1nc(Cl)nc(NCC)n1` [Simazine], in the assay with Nanobody-26, the “IC50 (Nanobody)” value worked out at 0.18 µg/mL and the “CR% (Nanobody)” value is on record as 33.6%. In addition, the “CR% (Nanobody)” value in the assay with Nanobody-26 (listed as simazine) is reported as “about 30%”. In addition, in the assay with Au@PtNPs-nanobody probe, the “CR% (Au@PtNPs-nanobody)” value is recorded as 6.01% and the “IC50 (Au@PtNPs-nanobody)” value stood at 0.53 µg/mL. In addition, in the assay with Au@PtNPs-nanobody probe (listed as simazine), the “CR% (Au@PtNPs-nanobody)” value is listed as “less than 7%”.
For `CCNc1nc(Cl)nc(NC(C)(C)C)n1` [Terbuthylazine], in the assay with Nanobody-26, the “IC50 (Nanobody)” value is 0.085 µg/mL and the “CR% (Nanobody)” value is given as 72.7%. For the same molecule, in the assay on Au@PtNPs-nanobody probe, the “CR% (Au@PtNPs-nanobody)” value stood at 10.9% and the “IC50 (Au@PtNPs-nanobody)” value came to 0.29 µg/mL.
As for `CCNc1nc(NC(C)(C)C)nc(SC)n1` [Terbutryn], the “IC50 (Nanobody)” value in the assay on Nanobody-26 was above 100 µg/mL. The “CR% (Nanobody)” value in the assay on Nanobody-26 is on record as below 0.1%; with Nanobody-26 (listed as terbutryn) it was “greater than 70%”. In addition, the “CR% (Au@PtNPs-nanobody)” value in the assay on Au@PtNPs-nanobody probe was below 0.1%; in the assay with Au@PtNPs-nanobody probe (listed as terbutryn), “greater than 10%”. For the same molecule, in the assay with Au@PtNPs-nanobody probe, the “IC50 (Au@PtNPs-nanobody)” value was above 100 µg/mL.
As to `CCNc1nc(N)nc(Cl)n1` [deisopropylatrazine], in the assay on Au@PtNPs-nanobody probe, the “CR% (Au@PtNPs-nanobody)” value is recorded as “less than 7%”.
